Assay results published in patent US11298314B2, “Injectable composition for localized fat reduction without pain, edema, and side effects, and method for preparing same” (AMI PHARM CO., LTD., priority 2017, dated 2022).

Experiments:
[1] = system: paw of the rats; experiment: Rat paw edema; format: in vivo, Sprague Dawley rats; conditions: for degree of edema in words: 2 hours after administration, rat paw; for degree of edema, 1 hour after administration / degree of edema, 2 hours after administration / degree of edema, Immediately after administration: 0.1 ml into rat paw
Experimental: (§1) To evaluate the degree of edema, each test compositions described above were injected into the paw of the rats. Specifically, male Sprague Dawley rats (6 weeks old) were purchased and used after one week of adaptation. The rats (body weight: 170˜200 g) were randomly selected and the thickness of the rat paw were measured with a caliper before the administration of the test compositions. In order to observe the edema, 0.1 ml of PBS and the various test compositions were administered to the paws of the rats. Measurements of the […] were performed by a caliper immediately before the injection, immediately after the injection, and 1 or 2 hours after the injection. In addition, when the thickness was measured, the skin lesion of the injection site was observed by photographing the sole of the paw (using a 4×4 cm scale).
The degree of edema was evaluated as 0 to 4 grades.

[2] = system: sole of the rat paws; experiment: Measurement of skin lesion (erythema) on rat paw; format: in vivo, Sprague Dawley rats; conditions: for skin lesion (erythema) in words: 2 hours after administration;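 as to grade of skin lesion (erythema), 1 hour after administration: grades − to ++++ mean no to extremely severe erythema versus before injection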;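 as to grade of skin lesion (erythema), 2 hours after administration: grades − to ++++ mean no to extremely severe erythema versus before injection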;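 as to grade of skin lesion (erythema), Immediately after administration: grades − to ++++ mean no to extremely severe erythema versus before injection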
Experimental: as §1
The grades of skin lesion were evaluated as 0 to 4 grades.

[3] = system: tissues of the injected area (rat paw); experiment: H&E staining histological test (inflammation) of injected rat paw; format: in vivo, Sprague Dawley rats; conditions: for Inflammation (H&E), BA % (w/v) 1.0: bile acid single composition 1.0% (w/v)
Experimental: The tissues of the injected area were dissected, fixed with 10% formalin, and then the specimen was prepared and images were captured using an optical microscope. The degree of inflammation was evaluated as follows.

[4] = Formulation stability of PPC injectable preparations: property, transparency, particle size, pH; conditions: for bile acid/PPC molar ratio below which a substantially stable formulation did not occur: PPC 5.0%; for bile acid concentration at which stable injectable preparations can be made: based on PPC 5.0%
Experimental: The particle size was measured using a nano particle size analyzer (Microtrac Wave, MICROTRACT, USA). […] The transparency was measured using a spectrophotometer (CM-3600d, KONICA MINOLTA, JAPAN). The pH was measured with a pH meter (ST3100, OHAUS, GERMANY), and the isotonicity was measured with an osmotic pressure meter (Vapro 5600, Elitech Group, Tokyo, Japan), and viscosity was analyzed using a viscometer (Digital Viscometer CL-2, CAS, Korea).
The washed and sterilized preparation tank was charged with the water for injection (at room temperature), and phosphatidylcholine (PPC) and benzyl alcohol were added thereto, and the mixture was stirred at 200 RPM for 2 hours under the condition of nitrogen pressure, shading and room temperature. After the completion of stirring, the mixture was transferred to an ultra-high pressure homogenizer (Nano Disperser NLM100, Ilshin Autoclave, Korea) with a nitrogen pressure. Ultra-high pressure homogenization (dispersion) was carried out at 12,000 psi for 7 cycles, and the particles were finely pulverized. Then, the pH was adjusted. After filtration through a 0.2 μm filter, the vial was filled and sealed.
Specifically, the water for injection was put into the preparation tank which was cleaned and sterilized (room temperature), and sodium hydroxide was added to the water for injection. Then deoxycholic acid and benzyl alcohol were added, stirred and dissolved. Then, phosphatidylcholine was added thereto, and the mixture was stirred at 200 RPM for about 24 hours under shading, sealing, room temperature (25° C.), and nitrogen pressure. After completion of the stirring, the pH was adjusted (if necessary, with additional sodium hydroxide or hydrochloric acid), and it was filtered through a 0.2 μm filter, and filled into the vial and sealed.
Then glycocholic acid and benzyl alcohol were added, stirred and dissolved. Then, phosphatidylcholine was added thereto, and the mixture was stirred at 200 RPM for about 24 hours under shading, sealing, room temperature (25° C.), and nitrogen pressure. After completion of the stirring, the pH was adjusted (if necessary, with additional sodium hydroxide or 0.001-0.6% of hydrochloric acid), and it was filtered through a 0.2 μm filter, and filled into the vial and sealed.
The formulation stability of the PPC injectable compositions solubilized with glycocholic acid (GCA) in Tables 3 and 4 was evaluated immediately after the preparation and 30 days after the preparation (refrigerated storage).

[5] = bile acid single composition 1.0% (w/v)
[6] = bile acid single composition 2.5% (w/v)
[7] = bile acid single composition 5.0% (w/v)
[8] = bile acid single composition 7.5% (w/v)

SMILES | degree of edema, 1 hour after administration [1, 5] | degree of edema, 2 hours after administration [1, 5] | degree of edema, Immediately after administration [1, 5] | degree of edema, 1 hour after administration [1, 6] | degree of edema, 2 hours after administration [1, 6] | degree of edema, Immediately after administration [1, 6] | degree of edema, 1 hour after administration [1, 7] | degree of edema, 2 hours after administration [1, 7] | degree of edema, Immediately after administration [1, 7] | degree of edema, 1 hour after administration [1, 8] | degree of edema, 2 hours after administration [1, 8] | degree of edema, Immediately after administration [1, 8] | grade of skin lesion (erythema), 1 hour after administration [2, 5] | grade of skin lesion (erythema), 2 hours after administration [2, 5] | grade of skin lesion (erythema), Immediately after administration [2, 5] | grade of skin lesion (erythema), 1 hour after administration [2, 6] | grade of skin lesion (erythema), 2 hours after administration [2, 6] | grade of skin lesion (erythema), Immediately after administration [2, 6] | grade of skin lesion (erythema), 1 hour after administration [2, 7] | grade of skin lesion (erythema), 2 hours after administration [2, 7] | other results
C[C@H](CCC(=O)NCC(=O)O)[C@H]1CC[C@H]2[C@@H]3CCC4C[C@H](O)CC[C@]4(C)[C@H]3C[C@H](O)[C@]12C (stereo partly drawn) [GDCA, 2-[[(4R)-4-[(3R,8R,9S,10S,12S,13R,14S,17R)-3,12-dihydroxy-10,13-dimethyl-2,3,4,5,6,7,8,9,11,12,14,15,16,17-tetradecahydro-1H-cyclopenta[a]phenanthren-17-yl]pentanoyl]amino]acetic acid] | +++ (severe edema [+++, (the degree of swelling was 40-60% compared to before the injection)]) | ++ (moderate edema [++, (the degree of swelling was 20-40% compared to before the injection)]) | ++ (moderate edema [++, (the degree of swelling was 20-40% compared to before the injection)]) | +++ (severe edema [+++, (the degree of swelling was 40-60% compared to before the injection)]) | +++ (severe edema [+++, (the degree of swelling was 40-60% compared to before the injection)]) | ++ (moderate edema [++, (the degree of swelling was 20-40% compared to before the injection)]) | ++++ (extremely severe edema [++++, (the degree of swelling was 60% or more compared to before the injection)]) | ++++ (extremely severe edema [++++, (the degree of swelling was 60% or more compared to before the injection)]) | ++ (moderate edema [++, (the degree of swelling was 20-40% compared to before the injection)]) | ++++ (extremely severe edema [++++, (the degree of swelling was 60% or more compared to before the injection)]) | ++++ (extremely severe edema [++++, (the degree of swelling was 60% or more compared to before the injection)]) | ++ (moderate edema [++, (the degree of swelling was 20-40% compared to before the injection)]) | ++ | ++ | ++ | ++++ | ++++ | ++ | ++++ | ++++ | degree of edema in words ([1]; listed as GDCA 1.0%): moderate; degree of edema in words ([1]; listed as GDCA 2.5%): “severe” and “extremely severe”; skin lesion (erythema) in words ([2]; listed as GDCA 1.0%): Moderate; skin lesion (erythema) in words ([2]; listed as GDCA 2.5%): “severe” and “extremely severe”; grade of skin lesion (erythema), Immediately after administration [2, 7]: ++; grade of skin lesion (erythema), 1 hour after administration [2, 8]: ++++; grade of skin lesion (erythema), 2 hours after administration [2, 8]: ++++; grade of skin lesion (erythema), Immediately after administration [2, 8]: ++; Inflammation (H&E), BA % (w/v) 1.0 ([3]; injected rat paw): ++; Inflammation (H&E), BA % (w/v) 2.5 ([3]; bile acid single composition 2.5% (w/v), injected rat paw): +++; degree of inflammation (H&E) in words ([3]; rats sacrificed at 3 hours, injected paw): Moderate; bile acid/PPC molar ratio below which a substantially stable formulation did not occur [4]: less than 0.87; bile acid concentration at which stable injectable preparations can be made [4]: ≥ 2.4%
C[C@H](CCC(=O)O)[C@H]1CC[C@H]2[C@@H]3C[C@H](O)[C@@H]4C[C@H](O)CC[C@]4(C)[C@H]3CC[C@]12C [HDCA, (4R)-4-[(3R,5R,6S,8S,9S,10R,13R,14S,17R)-3,6-dihydroxy-10,13-dimethyl-2,3,4,5,6,7,8,9,11,12,14,15,16,17-tetradecahydro-1H-cyclopenta[a]phenanthren-17-yl]pentanoic acid] | ++ (moderate edema [++, (the degree of swelling was 20-40% compared to before the injection)]) | +++ (severe edema [+++, (the degree of swelling was 40-60% compared to before the injection)]) | ++ (moderate edema [++, (the degree of swelling was 20-40% compared to before the injection)]) | ++ (moderate edema [++, (the degree of swelling was 20-40% compared to before the injection)]) | +++ (severe edema [+++, (the degree of swelling was 40-60% compared to before the injection)]) | ++ (moderate edema [++, (the degree of swelling was 20-40% compared to before the injection)]) | ++++ (extremely severe edema [++++, (the degree of swelling was 60% or more compared to before the injection)]) | ++++ (extremely severe edema [++++, (the degree of swelling was 60% or more compared to before the injection)]) | ++ (moderate edema [++, (the degree of swelling was 20-40% compared to before the injection)]) | ++++ (extremely severe edema [++++, (the degree of swelling was 60% or more compared to before the injection)]) | ++++ (extremely severe edema [++++, (the degree of swelling was 60% or more compared to before the injection)]) | ++ (moderate edema [++, (the degree of swelling was 20-40% compared to before the injection)]) | + | + | + | +++ | +++ | + | ++++ | ++++ | degree of edema in words ([1]; listed as HDCA 2.5%): “severe” and “extremely severe”; skin lesion (erythema) in words ([2]; listed as HDCA 1.0%): Mild; skin lesion (erythema) in words ([2]; listed as HDCA 2.5%): “severe” and “extremely severe”; grade of skin lesion (erythema), Immediately after administration [2, 7]: +; grade of skin lesion (erythema), 1 hour after administration [2, 8]: ++++; grade of skin lesion (erythema), 2 hours after administration [2, 8]: ++++; grade of skin lesion (erythema), Immediately after administration [2, 8]: ++; Inflammation (H&E), BA % (w/v) 1.0 ([3]; injected rat paw): +++; bile acid/PPC molar ratio below which a substantially stable formulation did not occur [4]: less than 0.95; bile acid concentration at which stable injectable preparations can be made [4]: ≥ 2.3%
